Results: article PMC7486443, “Generation of Phenothiazine with Potent Anti-TLK1 Activity for Prostate Cancer Therapy” (iScience, 2020)

Experiments:
Test in all cases: biochemical
Parameters in all cases: DiscoverX KINOMEscan scanMAX competition binding panel, single concentration, percent of control; remaining binding: dose or concentration left out as unconfirmed
Settings in all cases: KINOMEscan binding, percent of control; read-out: Table S4_SCANMAX REPORT - related to Fig. 1 / Percent Control
[1] = target: BLK (Homo sapiens, UniProt P51451)
[2] = target: BRSK1 (Homo sapiens, UniProt Q8TDC3)
[3] = target: CAMK2A (Homo sapiens, UniProt Q9UQM7)
[4] = target: CAMK4 (Homo sapiens, UniProt Q16566)
[5] = target: CLK4 (Homo sapiens, UniProt Q9HAZ1)
[6] = target: CSNK1A1 (Homo sapiens, UniProt P48729)
[7] = target: CSNK1A1L (Homo sapiens, UniProt Q8N752)
[8] = target: EGFR(S752-I759del) (Homo sapiens, UniProt P00533, DEL752-759)
[9] = target: GRK3 (Homo sapiens, UniProt P35626)
[10] = target: T1, JAK3(JH1domain-catalytic) (Homo sapiens, UniProt P52333)
T1 construct: JH1domain-catalytic

[11] = target: T2, LZK (Homo sapiens, UniProt O43283)
T2 construct: gene MAP3K13

[12] = target: MAP4K2 (Homo sapiens, UniProt Q12851)
[13] = target: T3, MST2 (Homo sapiens, UniProt Q13188)
T3 construct: gene STK3

[14] = target: MYLK4 (Homo sapiens, UniProt Q86YV6)
[15] = target: PIK3CA(H1047Y) (Homo sapiens, UniProt P42336, H1047Y)
[16] = target: PKN2 (Homo sapiens, UniProt Q16513)
[17] = target: RIPK1 (Homo sapiens, UniProt Q13546)
[18] = target: SNRK (Homo sapiens, UniProt Q9NRH2)
[19] = target: ULK2 (Homo sapiens, UniProt Q8IYT8)

T1 sequence (P52333 whole entry): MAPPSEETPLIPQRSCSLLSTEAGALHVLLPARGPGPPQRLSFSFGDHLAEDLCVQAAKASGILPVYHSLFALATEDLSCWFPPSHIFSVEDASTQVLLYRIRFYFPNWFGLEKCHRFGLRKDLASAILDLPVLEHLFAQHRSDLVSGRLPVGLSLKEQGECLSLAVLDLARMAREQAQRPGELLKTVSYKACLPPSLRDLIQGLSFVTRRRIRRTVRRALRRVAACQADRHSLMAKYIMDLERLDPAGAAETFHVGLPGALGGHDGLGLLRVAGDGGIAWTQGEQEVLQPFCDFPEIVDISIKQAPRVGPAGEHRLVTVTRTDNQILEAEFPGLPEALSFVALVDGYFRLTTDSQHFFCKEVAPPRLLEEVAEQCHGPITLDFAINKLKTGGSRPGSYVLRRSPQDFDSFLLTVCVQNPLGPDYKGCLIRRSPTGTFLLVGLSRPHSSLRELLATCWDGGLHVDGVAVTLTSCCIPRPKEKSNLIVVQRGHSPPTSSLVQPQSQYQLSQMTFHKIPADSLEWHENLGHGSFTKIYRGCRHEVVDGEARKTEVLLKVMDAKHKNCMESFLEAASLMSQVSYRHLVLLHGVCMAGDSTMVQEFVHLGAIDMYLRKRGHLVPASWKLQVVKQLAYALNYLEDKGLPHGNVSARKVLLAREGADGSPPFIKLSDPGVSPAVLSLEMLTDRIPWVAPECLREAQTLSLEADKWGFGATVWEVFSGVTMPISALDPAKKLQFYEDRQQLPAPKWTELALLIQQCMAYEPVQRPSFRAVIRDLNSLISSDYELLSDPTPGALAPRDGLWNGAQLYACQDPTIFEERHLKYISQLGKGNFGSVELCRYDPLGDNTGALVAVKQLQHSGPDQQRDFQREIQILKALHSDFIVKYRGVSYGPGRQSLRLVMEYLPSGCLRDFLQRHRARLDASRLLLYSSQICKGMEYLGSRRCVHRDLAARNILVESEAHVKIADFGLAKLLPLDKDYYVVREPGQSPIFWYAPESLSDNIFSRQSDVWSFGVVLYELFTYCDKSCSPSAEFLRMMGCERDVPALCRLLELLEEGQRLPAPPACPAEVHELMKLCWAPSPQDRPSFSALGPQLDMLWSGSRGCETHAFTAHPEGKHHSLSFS
BRSK1, sequence (Q8TDC3 whole entry): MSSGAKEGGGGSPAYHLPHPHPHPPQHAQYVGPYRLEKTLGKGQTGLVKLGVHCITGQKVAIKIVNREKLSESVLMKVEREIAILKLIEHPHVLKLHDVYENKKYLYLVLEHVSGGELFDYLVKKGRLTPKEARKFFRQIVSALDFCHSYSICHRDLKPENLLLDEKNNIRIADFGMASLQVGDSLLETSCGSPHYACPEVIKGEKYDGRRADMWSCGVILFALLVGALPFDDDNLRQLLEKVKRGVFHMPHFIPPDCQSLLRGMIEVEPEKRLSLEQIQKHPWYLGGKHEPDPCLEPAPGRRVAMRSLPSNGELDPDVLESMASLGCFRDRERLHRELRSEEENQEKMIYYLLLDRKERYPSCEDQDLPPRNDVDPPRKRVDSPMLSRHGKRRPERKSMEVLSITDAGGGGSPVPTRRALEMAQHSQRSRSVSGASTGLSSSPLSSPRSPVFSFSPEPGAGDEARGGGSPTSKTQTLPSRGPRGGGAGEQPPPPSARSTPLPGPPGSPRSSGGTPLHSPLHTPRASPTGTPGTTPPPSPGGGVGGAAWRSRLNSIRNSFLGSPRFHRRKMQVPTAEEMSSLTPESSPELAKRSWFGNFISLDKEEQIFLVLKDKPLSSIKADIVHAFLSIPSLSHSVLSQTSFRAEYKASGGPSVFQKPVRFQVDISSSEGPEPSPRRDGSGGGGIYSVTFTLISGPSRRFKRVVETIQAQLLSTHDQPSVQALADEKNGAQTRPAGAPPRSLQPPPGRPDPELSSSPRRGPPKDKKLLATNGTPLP
MAP4K2, sequence (Q12851 whole entry): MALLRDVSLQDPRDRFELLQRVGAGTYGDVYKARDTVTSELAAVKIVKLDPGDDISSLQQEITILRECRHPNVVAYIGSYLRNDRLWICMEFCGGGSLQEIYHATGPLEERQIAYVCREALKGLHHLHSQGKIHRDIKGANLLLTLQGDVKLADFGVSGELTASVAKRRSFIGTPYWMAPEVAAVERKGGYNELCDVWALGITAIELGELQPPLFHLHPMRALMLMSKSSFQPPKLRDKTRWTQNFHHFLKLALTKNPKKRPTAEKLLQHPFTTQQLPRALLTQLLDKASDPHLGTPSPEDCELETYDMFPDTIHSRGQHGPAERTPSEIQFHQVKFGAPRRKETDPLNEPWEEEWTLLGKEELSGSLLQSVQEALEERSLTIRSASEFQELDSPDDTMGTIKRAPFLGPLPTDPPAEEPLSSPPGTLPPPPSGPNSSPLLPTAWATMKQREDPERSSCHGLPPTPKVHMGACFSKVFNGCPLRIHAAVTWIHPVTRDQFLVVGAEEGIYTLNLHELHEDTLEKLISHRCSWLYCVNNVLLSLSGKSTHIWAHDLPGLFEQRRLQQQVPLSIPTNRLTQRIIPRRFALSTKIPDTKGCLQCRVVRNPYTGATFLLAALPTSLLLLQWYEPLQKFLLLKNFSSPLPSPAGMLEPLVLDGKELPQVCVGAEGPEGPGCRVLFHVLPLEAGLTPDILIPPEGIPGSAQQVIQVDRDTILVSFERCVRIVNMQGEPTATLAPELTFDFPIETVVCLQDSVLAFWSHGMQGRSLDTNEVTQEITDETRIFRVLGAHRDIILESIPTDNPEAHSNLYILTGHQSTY
GRK3, sequence (P35626 whole entry): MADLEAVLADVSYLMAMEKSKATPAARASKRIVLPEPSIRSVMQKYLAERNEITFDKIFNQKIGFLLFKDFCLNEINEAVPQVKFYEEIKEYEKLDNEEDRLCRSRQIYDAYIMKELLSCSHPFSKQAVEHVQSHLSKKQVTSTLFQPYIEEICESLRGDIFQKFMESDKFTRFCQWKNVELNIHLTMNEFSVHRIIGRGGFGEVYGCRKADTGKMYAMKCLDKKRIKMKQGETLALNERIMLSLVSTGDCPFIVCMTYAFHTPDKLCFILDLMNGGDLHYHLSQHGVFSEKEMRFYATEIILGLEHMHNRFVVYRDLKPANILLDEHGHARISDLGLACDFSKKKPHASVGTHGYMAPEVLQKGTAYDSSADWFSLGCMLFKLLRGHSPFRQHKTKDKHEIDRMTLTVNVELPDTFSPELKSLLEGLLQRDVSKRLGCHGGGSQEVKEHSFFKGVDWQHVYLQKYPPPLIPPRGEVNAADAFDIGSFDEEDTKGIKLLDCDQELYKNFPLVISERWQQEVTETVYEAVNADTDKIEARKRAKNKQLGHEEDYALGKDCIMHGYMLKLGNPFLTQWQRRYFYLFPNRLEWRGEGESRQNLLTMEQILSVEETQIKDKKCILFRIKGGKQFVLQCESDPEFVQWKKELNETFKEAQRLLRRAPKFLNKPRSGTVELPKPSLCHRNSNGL
EGFR(S752-I759del), sequence (P00533 with tags, fused parts or gaps DEL752-759): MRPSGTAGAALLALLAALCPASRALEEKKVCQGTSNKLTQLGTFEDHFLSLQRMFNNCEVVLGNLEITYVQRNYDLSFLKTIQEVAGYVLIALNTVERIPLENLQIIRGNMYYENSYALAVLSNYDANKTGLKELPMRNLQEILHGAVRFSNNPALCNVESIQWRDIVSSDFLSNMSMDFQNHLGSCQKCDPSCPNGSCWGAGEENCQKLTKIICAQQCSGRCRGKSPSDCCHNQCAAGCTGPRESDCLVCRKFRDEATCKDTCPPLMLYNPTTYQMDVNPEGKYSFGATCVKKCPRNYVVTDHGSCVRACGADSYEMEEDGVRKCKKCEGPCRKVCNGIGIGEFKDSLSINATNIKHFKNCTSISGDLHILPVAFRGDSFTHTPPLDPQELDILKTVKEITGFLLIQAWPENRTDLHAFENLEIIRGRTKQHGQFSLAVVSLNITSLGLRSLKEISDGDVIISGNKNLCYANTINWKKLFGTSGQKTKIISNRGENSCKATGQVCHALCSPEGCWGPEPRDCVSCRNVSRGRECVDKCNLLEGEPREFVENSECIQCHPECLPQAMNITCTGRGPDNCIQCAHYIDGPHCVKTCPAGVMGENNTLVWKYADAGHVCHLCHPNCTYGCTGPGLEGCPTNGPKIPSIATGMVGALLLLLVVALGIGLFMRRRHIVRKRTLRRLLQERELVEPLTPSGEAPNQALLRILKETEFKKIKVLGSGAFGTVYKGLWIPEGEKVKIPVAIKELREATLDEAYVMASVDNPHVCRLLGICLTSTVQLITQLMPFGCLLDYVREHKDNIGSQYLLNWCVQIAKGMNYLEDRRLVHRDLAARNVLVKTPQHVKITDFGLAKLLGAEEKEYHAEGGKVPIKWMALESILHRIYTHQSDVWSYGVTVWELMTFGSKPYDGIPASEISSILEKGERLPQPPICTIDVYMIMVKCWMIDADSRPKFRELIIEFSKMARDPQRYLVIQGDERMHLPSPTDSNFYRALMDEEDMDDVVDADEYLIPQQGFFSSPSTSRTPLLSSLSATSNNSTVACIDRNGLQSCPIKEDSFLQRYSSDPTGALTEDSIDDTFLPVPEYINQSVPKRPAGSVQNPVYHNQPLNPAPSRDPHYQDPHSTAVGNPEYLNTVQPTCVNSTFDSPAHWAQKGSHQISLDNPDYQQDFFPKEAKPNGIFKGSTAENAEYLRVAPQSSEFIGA
CAMK2A, sequence (Q9UQM7 whole entry): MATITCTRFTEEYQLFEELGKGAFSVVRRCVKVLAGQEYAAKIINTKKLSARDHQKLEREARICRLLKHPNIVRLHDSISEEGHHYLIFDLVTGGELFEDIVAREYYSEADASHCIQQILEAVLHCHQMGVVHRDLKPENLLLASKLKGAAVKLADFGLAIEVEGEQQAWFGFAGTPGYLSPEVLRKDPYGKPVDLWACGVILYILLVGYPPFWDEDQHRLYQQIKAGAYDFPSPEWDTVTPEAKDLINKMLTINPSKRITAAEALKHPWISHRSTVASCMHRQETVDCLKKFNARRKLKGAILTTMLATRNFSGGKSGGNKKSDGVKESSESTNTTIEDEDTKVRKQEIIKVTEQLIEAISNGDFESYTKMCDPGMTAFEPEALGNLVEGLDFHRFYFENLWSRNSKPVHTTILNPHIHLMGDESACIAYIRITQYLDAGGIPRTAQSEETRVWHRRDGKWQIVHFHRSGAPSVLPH

## c1ccc2c(c1)Sc1ccccc1N2CCN1CCOCC1 [J54]
[1]
  remaining binding: 60%
[2]
  remaining binding: 100%
[3]
  remaining binding: 78%
[4]
  remaining binding: 94%
[5]
  remaining binding: 100%
[6]
  remaining binding: 100%
[7]
  remaining binding: 100%
[8]
  remaining binding: 94%
[9]
  remaining binding: 93%
[10]
  remaining binding: 85%
[11]
  remaining binding: 92%
[12]
  remaining binding: 100%
[13]
  remaining binding: 100%
[14]
  remaining binding: 99%
[15]
  remaining binding: 86%
[16]
  remaining binding: 69%
[17]
  remaining binding: 84%
[18]
  remaining binding: 59%
[19]
  remaining binding: 100%
